{"source": "patent US12023308B2", "about": "“Agents for reversing toxic proteinopathies” (THE BROAD INSTITUTE, INC., priority 2019, dated 2024)", "key": {"MUC1-fs [1]": {"tested_on": "MUC1-fs", "assay": "MUC1-fs immunofluorescence high-content imaging assay in P cells", "assay_type": "cell-based, human", "procedure": "Cells grown on CellCarrier-96 or -384 well Ultra microplates (PerkinElmer) were fixed 10 min in PBS containing 4% PFA (Electron Microscopy Sciences), permeabilized 15 min in 0.5% Triton X100 (X100-100ML, Sigma-Aldrich), blocked for 1 hr in blocking reagent (100 mM Tris HCL pH8; 150 mM NaCL; 5 g/L Blocking Reagent [11096176001, Roche]) and treated for 1 hr with primary antibodies diluted in blocking reagent (1:500, monoclonal Fab-A-VSH anti-fsMUC1, AbD22655.2, Bio-Rad; 1:2000, monoclonal Mouse anti-MUC1 (CD227), 60137, Stemcell Technologies; 1:200, polyclonal, Mouse anti-GM130, ab169276, Abcam; 1:100, polyclonal, Rabbit anti-TMED9, 216201-AP, Proteintech; 1:800, polyclonal, Rabbit anti-SEC31A, 17913-1-AP, Proteintech; 1:400, monoclonal, Rabbit anti-EEA1 (C45B10), 3288S, Cell signaling technology; 1:100, polyclonal, Rabbit anti-ERGIC-53, E1031, Sigma-Aldrich; 1:400, monoclonal, Mouse anti-LAMP1 (D401S), 15665, Cell signaling technology; 1:1000, polyclonal, Rabbit anti-Calnexin, ab22595, Abcam; 1:2000, monoclonal, Rabbit anti-GM130 (D6B1) XP, 12480, Cell signaling technology; 1:200, monoclonal, Rabbit anti TNG46, ab50595, Abcam; 1:100, monoclonal, Rabbit anti-Rab7 (D95F2) XP, 9367, Cell signaling technology; 1:100, monoclonal, Rabbit anti-Rab11 (D4F5) XP, 5589, Cell signaling technology). Fixed, stained cells were washed three times in PBS and incubated for 1 hr with secondary antibodies in blocking solution (1:500, Alexa Fluor 488® Goat anti-Mouse IgG, A-11029, Thermo Fisher Scientific®; 1:500, Alexa Fluor 647® F(ab′)2-Goat anti-Rabbit IgG, A21246, Thermo Fisher Scientific®; 1:2000, Hoechst 33342, H3570, Thermo Fisher Scientific®), then washed three times in PBS and imaged.\nCell nuclei were first identified using Hoechst staining, and cell number was calculated. Cytoplasmic regions were then detected around each nucleus based on combined channels. The cells from the edge of the field were eliminated from the analysis. For the quantification of protein abundance, the total signal intensity value for each antibody was calculated separately in the cell cytoplasm and the average signal per cell was calculated for each well.\nP cells were seeded 24 hr prior to compound treatment at a density of 12,000 cells/well in 384 well Cell Carrier Ultra plates (6057308, Perkin Elmer), pre-coated with 0.25 mg/mL Synthemax II SC Substrate (3535, Corning). Compounds of the repurposing library set (Corsello et al., 2017) were used at 5 doses (35, 3.5, 0.35, 0.035 and 0.0035 μM) for the primary screen and 10 doses (16, 5.6, 1.8, 0.6, 0.21, 0.07, 0.02, 0.008, 0.002 and 0.0008 μM) for the following screens. The compounds, in two replicates, were transferred from compound source plates to the cell plates using the HighRes Pin Tool. […] After 48 hr incubation, cells were fixed for 20 min in 4% PFA (Electron Microscopy Sciences) in PBS, washed twice, then permeabilized (10 min) with 0.5% Triton-X100 (X100-100ML, Sigma-Aldrich) in PBS and washed once more. Cells were blocked for 10 min at RT with Blocking solution (100 mM Tris HCL pH8; 150 mM NaCL; 5 g/L Blocking Reagent [11096176001, Roche]), then incubated 90 min at RT with one of the following primary antibodies in Roche Blocking solution: 1:500, monoclonal Fab-A-VSH anti-MUC1-fs, AbD22655.2, Bio-Rad; 1:2000, monoclonal mouse anti-MUC1 (214D4), 05-652-KC, Millipore; 1:1000, monoclonal, Rabbit anti-GM130 (D6B1) XP, 12480, Cell signaling technology. […]"}, "[2]": {"assay": "Dose response exposure PK study in male 129-ELITE mice", "assay_type": "in vivo, mouse", "conditions": "single p.o. doses", "description": "4) A pharmacokinetic study was performed by Charles River Labs (CRL) (Worcester, Mass., USA) in fed male 129-ELITE mice (study EF-0024-DA-MI) to determine the dose response exposure of BRD-4780, BRD-1365 and BRD-7709 in plasma, kidney, liver and eye. Brain exposure to BRD-4780 at 30 mg/kg was also evaluated A single dose of BRD-4780 was administered at 30.0 mg/kg or 100 mg/kg orally (p.o) in a clear solution of 5% dextrose in water (D5W). For BRD-1365 and BRD-7709, a single dose of either compound was administered at 10.0 mg/kg, 30.0 mg/kg, 50.0 mg/kg or 100 mg/kg orally (p.o) in a clear solution of 5% dextrose in water (D5W). Blood, kidney, liver and eye tissue were collected from n=3 mice per dose group at six time points post p.o. dose administration (1, 2, 6, 10, 16 and 24 hours) with all three compounds. Brain tissue was collected from n=3 mice per dose group at six time points post p.o. dose administration (1, 2, 6, 10, 16 and 24 hours) with BRD-4780 at 30 mg/kg. Plasma obtained by centrifugation and tissue fragments were homogenized. Plasma and tissue drug concentration was determined by LC-MS/MS and reported as drug concentration in ng/mL for plasma and ng/mg for kidney, liver and eye tissue, plotted as the mean±standard deviation concentration for males for BRD-4780 ([…]), BRD-1365 (FIG. 11K) and BRD-7709 (FIG. 11M). Standard pharmacokinetic parameters were calculated for males for BRD-4780 ([…]), BRD-1365 (FIG. 11O) and BRD-7709 (FIG. 11P)."}, "MUC1-fs [3]": {"tested_on": "MUC1-fs", "assay": "MUC1-fs subcellular distribution (co-localization IF) in P cells", "assay_type": "cell-based, human", "procedure": "Cell nuclei were first identified using Hoechst staining, and cell number was calculated. Cytoplasmic regions were then detected around each nucleus based on combined channels. The cells from the edge of the field were eliminated from the analysis. For the quantification of protein abundance, the total signal intensity value for each antibody was calculated separately in the cell cytoplasm and the average signal per cell was calculated for each well. For quantitation of MUC1-fs cellular distribution and trafficking, the analysis was performed as described in FIG. 13A using the “spot” identification feature for the detection of MUC1-fs and the different organelles.\nDetection of MUC1-fs in P cells at baseline and following secretory pathway perturbations was performed using immunoblot and IF analyses. […] For IF experiments (FIGS. 5B-5D and 13A-13C), P cells were plated in 384-well plates at 12,000 cells/well."}, "MUC1-fs [4]": {"tested_on": "MUC1-fs", "assay": "Immunoblot analysis of MUC1-fs in P cells under pathway perturbations", "assay_type": "cell-based, human", "conditions": "for effect on BRD-4780-mediated MUC1-fs clearance (immunoblot): with BRD-4780 (5 μM)", "source_text": "Cells were lysed in lysing buffer solution (9803, Cell Signaling Technology) containing protease inhibitors (05892791001, Roche) and phosphatase inhibitors (04906837001, Roche). […] To normalize protein concentration, proteins in the supernatant of cells or of kidney lysates were quantified using the Pierce BCA Protein Assay Kit (23225, Thermo Fisher Scientific®). Normalized protein lysates were then mixed with NuPAGE LDS sample buffer (NP0008, Thermo Scientific) and NuPAGE reducing agent (NP0004, Thermo Scientific) and heated to 75° C. for 10 min prior to SDS-PAGE gel electrophoresis using NuPAGE Tris-Acetate SDS Running Buffer (LA0041, Thermo Scientific) or NuPAGE MES SDS running buffer (NP0002, Thermo Fisher Scientific®) depending on protein molecular weight of interest. Electrophoretically separated proteins were transferred to a nitrocellulose membrane (1704158, BioRad) using Trans-Blot® Turbo™ Blotting System (1704155, BioRad) following manufacturer's protocol. Membranes were blocked in 5% Nonfat Dry Milk (9999S, Cell Signaling Technology) in PBS with 0.1% Tween® 20 (PBS-T), and probed with primary antibody overnight at 4° C. Following three washes with PBS-T, the membranes were incubated with secondary antibody for 1 hr at room temperature, washed three more times in PBS-T, and incubated with Super Signal West Dura (34076, Thermo Fisher Scientific®) or Super Signal West Pico (34087, Thermo Fisher Scientific®) and immunoreactive bands were imaged by G:BOX Chemi XT4 (G:BOX-CHEMI-XT4, Syngene).\nDetection of MUC1-fs in P cells at baseline and following secretory pathway perturbations was performed using immunoblot and IF analyses. For immunoblot experiments (FIGS. 5E and 13D), P cells were grown in 6-well plates to high confluence. For IF experiments (FIGS. 5B-5D and 13A-13C), P cells were plated in 384-well plates at 12,000 cells/well. Following 24 hr, cells were treated with 5 μM BRD-4780 or DMSO alone, or in combination with 100 nM Bafilomycin A (B1793, Sigma-Aldrich), or 200 ng/mL Brefeldin A (B7651, Sigma-Aldrich) for a maximum period of 24 hr as indicated. For TMED9 or Nischarin depletion experiments, transduced/transfected P cells were plated either in 96-well plates at 60,000 cells/well for IF (FIGS. 6C, 6D and 14B), or grown in 6-well plates to high confluence for immunoblot detection (FIGS. 6B and 14C). Cells were then treated with 5 μM BRD-4780 or DMSO for 24 hr (for IF detection) or 72 hr (for immunoblot analysis) and were processed accordingly."}, "IRE": {"tested_on": "IRE", "assay": "RT-PCR analysis of XBP1 splicing in THP-treated P cells", "assay_type": "cell-based, human", "conditions": "P cells treated with THP (100 nM)", "description": "XBP1 splicing was analyzed by standard RT-PCR. Briefly, RNA was isolated from patient cells using a RNeasy Mini Kit (74106, Qiagen). One μg of RNA was converted to cDNA using the SuperScript First-Strand Synthesis system for RT-PCR (11904-018, Invitrogen). The primer sequences used are as follows: Human XBP1 Forward Primer: 5′ TTACGAGAGAAAACTCATGGCC 3′ (SEQ ID NO: 12). Human XBP1 Reverse Primer: 5′ GGGTCCAAGTTGTCCAGAATGC 3′ (SEQ ID NO: 13). PCR was carried out on 3 μL of the resulting cDNA solution using the OneTaq Hot Start Master Mix (M0484S, NEB). Five μL of PCR product was run on a 2% agarose gel for 90 min at 150 V."}, "PERK": {"tested_on": "PERK", "assay": "Immunoblot of eIF2a phosphorylation in P cells", "assay_type": "cell-based, human", "description": "(§1) Cells were lysed in lysing buffer solution (9803, Cell Signaling Technology) containing protease inhibitors (05892791001, Roche) and phosphatase inhibitors (04906837001, Roche). Mouse kidney tissues were lysed by tissue homogenizer (Tissue-Tearo™, BioSpec Products) in lysing buffer solution containing inhibitors as above, followed by 20 min rocking at 4° C. and centrifugation at 16,000 g, 4° C. for 5 min. To normalize protein concentration, proteins in the supernatant of cells or of kidney lysates were quantified using the Pierce BCA Protein Assay Kit (23225, Thermo Fisher Scientific®). Normalized protein lysates were then mixed with NuPAGE LDS sample buffer (NP0008, Thermo Scientific) and NuPAGE reducing agent (NP0004, Thermo Scientific) and heated to 75° C. for 10 min prior to SDS-PAGE gel electrophoresis using NuPAGE Tris-Acetate SDS Running Buffer (LA0041, Thermo Scientific) or NuPAGE MES SDS running buffer (NP0002, Thermo Fisher Scientific®) depending on protein molecular weight of interest. Electrophoretically separated proteins were transferred to a nitrocellulose membrane (1704158, BioRad) using Trans-Blot® Turbo™ Blotting System (1704155, BioRad) following manufacturer's protocol. Membranes were blocked in 5% Nonfat Dry Milk (9999S, Cell Signaling Technology) in PBS with 0.1% Tween® 20 (PBS-T), and probed with primary antibody overnight at 4° C. […]"}, "total MUC1 mRNA": {"tested_on": "total MUC1 mRNA", "assay": "MUC1 transcription assay (RT-PCR profiling screen) in P cells", "assay_type": "cell-based, human", "conditions": "preliminary in vitro experiments in P cells", "description": "qPCR was performed using a previously described protocol (Bittker, 2012). P cells seeded at 2000 cells/well in 384-well, clear bottom, white wall plates were grown for 24 hr, then treated with profiling compounds transferred by pinning to duplicate plates. JQ1 (250 nM) and DMSO were used for controls as above. After 24 hr, cells were washed and cDNAs were made using ABI Cells-to-Ct kit (Thermo Fisher Scientific®, Waltham, Mass.). MUC1 and HMBS delta Cp values were determined using a Roche LightCycler 480 Instrument and TaqMan probes for MUC1 FAM (4351368 assay ID Hs00159357_m1) and HMBS VIC (4448486-assay ID Hs00609297_m1) (Thermo Fisher Scientific®, Waltham, Mass.), in 5 μL reactions. The fold change effect of the compounds on total MUC1 mRNA was normalized to JQ1 and DMSO controls, as described above."}, "P cells [5]": {"tested_on": "P cells", "assay": "P cell viability upon THP treatment (live imaging, rescue)", "assay_type": "cell-based, human", "conditions": "Homo sapiens; DMSO pre-treatment, 5 days THP", "procedure": "To study apoptosis and cell death in N and P cells, 384 well Cell Carrier Ultra plates (6057308, Perkin Elmer), pre-coated with 0.25 mg/mL Synthemax II SC Substrate (3535, Corning) were used. […] CellEvent Caspase-3/7 Green Detection Reagent (C10423, Thermo Fisher Scientific®) and DRAQ7 (DR71000, Biostatus) were used at 1:5000 to monitor apoptosis and cell death respectively. Cells were imaged daily during 4 days to monitor viability and image analysis was performed as described below. For rescue experiments, P cells were plated on 96 well Cell Carrier Ultra microplates (6055302, Perkin Elmer) at 30,000 cells/well and cultured for 24 hr. BRD-4780 (5 μM) was applied as a pretreatment for 48 hr prior to thapsigargin exposure and throughout the experiment. Thapsigargin was applied at increasing doses and the plates were imaged daily thereafter.\nFor the measurement of P cell rescue from THP-induced cell death by BRD-4780 (FIGS. 3I and 3J), no dyes were added to avoid any influence on cell growth. Digital phase contrast images were used for cell identification and count, and autofluorescence in the far-red channel was used for detection of dead cells. Cells with no autofluorescence were identified and calculated as live cell.\nP cells were seeded 12 hr prior to profiling compound treatment at a density of 12,000 cells/well in 384 well Cell Carrier Ultra plates (6057308, Perkin Elmer), pre-coated with 0.25 mg/mL Synthemax II SC Substrate (3535, Corning). After 24 hr, CellEvent Caspase-3/7 Green Detection Reagent (C10423, Thermo Fisher Scientific®) and DRAQ7 (DR71000, Biostatus) were added at 1:5000 final dilution in the presence or absence of thapsigargin (100 nM). Cells were imaged daily during 7 days to monitor viability. Image acquisition and analysis was done as described above and viability was assessed as fraction of live cells at day 5 of thapsigargin treatment, and at the day 6 for DMSO."}, "P cells [6]": {"tested_on": "P cells", "assay": "THP-induced apoptosis (caspase 3/7) in N and P cells", "assay_type": "cell-based, human", "conditions": "P cells compared to N cells, 72 hour", "procedure": "To study apoptosis and cell death in N and P cells, 384 well Cell Carrier Ultra plates (6057308, Perkin Elmer), pre-coated with 0.25 mg/mL Synthemax II SC Substrate (3535, Corning) were used. […] CellEvent Caspase-3/7 Green Detection Reagent (C10423, Thermo Fisher Scientific®) and DRAQ7 (DR71000, Biostatus) were used at 1:5000 to monitor apoptosis and cell death respectively. Cells were imaged daily during 4 days to monitor viability and image analysis was performed as described below. For rescue experiments, P cells were plated on 96 well Cell Carrier Ultra microplates (6055302, Perkin Elmer) at 30,000 cells/well and cultured for 24 hr. […]\nCaspase 3/7 activation and/or DRAQ7 staining were used to calculate the fraction of cells going through apoptosis and/or cell death, respectively. Single cells were first identified using the digital phase contrast channel and cell number was calculated. Fluorescence intensities were then measured and the threshold for Caspase 3/7 and DRAQ7 positive staining was determined. As an output, the fraction of live (neither caspase3/7 nor DRAQ7 signal detected), apoptotic (caspase3/7 positive) or dead cells (DRAQ7 positive) was calculated in each well at a particular time point.\nCell viability was determined using caspase activation as described above."}, "ATF6": {"tested_on": "ATF6", "assay": "Immunoblot of BiP in THP-treated P cells", "assay_type": "cell-based, human", "conditions": "P cells treated with THP (100 nM)", "description": "as §1"}}, "note": "pEC50, pIC50: −log10 of the molar value. Like-named read-outs stand apart in the source and are kept apart here.", "data": [{"compound": "CC(C)[C@H]1[C@@H]2CC[C@@H](C2)[C@@H]1N", "note": "(single isomer, unassigned) [BRD-1365]", "values": [{"measurement": "FS MUC1 cytoplasm EMax", "setting": "MUC1-fs [1]; high-content imaging assay", "value": "−39", "unit": "%"}, {"measurement": "pIC50", "setting": "MUC1-fs [1]; read-out: FS MUC1 cytoplasm IC50; high-content imaging assay", "value": 6.14}, {"measurement": "dose proportionality of AUC exposures", "setting": "[2]", "value": "not dose proportional"}]}, {"compound": "CC(C)[C@@H]1[C@H]2CC[C@H](C2)[C@H]1N", "note": "(single isomer, unassigned) [BRD-7709]", "values": [{"measurement": "FS MUC1 cytoplasm EMax", "setting": "MUC1-fs [1]; high-content imaging assay", "value": "−39", "unit": "%"}, {"measurement": "pIC50", "setting": "MUC1-fs [1]; high-content imaging assay; read-out: FS MUC1 cytoplasm IC50", "value": 6.18}, {"measurement": "dose proportionality of AUC exposures", "setting": "[2]", "value": "nearly dose proportional"}]}, {"compound": "C[C@H]1CCC/C=C/[C@@H]2C[C@H](O)C[C@H]2[C@H](O)/C=C/C(=O)O1", "note": "[BFA, Brefeldin A]", "values": [{"measurement": "MUC1-fs subcellular distribution", "setting": "MUC1-fs [3]", "value": "MUC1-fs accumulation in the ER"}, {"measurement": "effect on BRD-4780-mediated MUC1-fs clearance (immunoblot)", "setting": "MUC1-fs [4]", "value": "abrogated the effect of BRD-4780 on MUC1-fs clearance"}]}, {"compound": "CO/C1=C\\C(C)=C\\[C@@H](C)[C@@H](O)[C@@H](C)C/C(C)=C/C=C/[C@H](OC)[C@@H]([C@@H](C)[C@@H](O)[C@H](C)[C@@]2(O)C[C@@H](O)[C@H](C)[C@@H](C(C)C)O2)OC1=O", "note": "[Bafilomycin A]", "values": [{"measurement": "MUC1-fs subcellular distribution", "setting": "MUC1-fs [3]", "value": "accumulation of MUC1-fs in the late secretory pathway"}, {"measurement": "effect on BRD-4780-mediated MUC1-fs clearance (immunoblot)", "setting": "MUC1-fs [4]", "value": "prevented BRD-4780 from clearing mutant MUC1-fs"}]}, {"compound": "CC(C)C[C@H](NC(=O)[C@H](Cc1ccccc1)NC(=O)c1cnccn1)B(O)O", "note": "[Bortezomib]", "values": [{"measurement": "effect on BRD-4780-mediated MUC1-fs clearance (immunoblot)", "setting": "MUC1-fs [4]", "value": "did not affect MUC1-fs removal by BRD-4780"}]}, {"compound": "Cc1cc(=O)oc2c(C=O)c(O)ccc12", "note": "[Compound 4μ8c]", "values": [{"measurement": "IRE activation (XBP1 splicing)", "setting": "IRE", "value": "dose-dependent inhibition of XBP1 splicing"}]}, {"compound": "Cc1cccc(CC(=O)N2CCc3c2ccc(-c2cn(C)c4ncnc(N)c24)c3F)n1", "note": "[GSK2656157]", "values": [{"measurement": "PERK activation (eIF2a phosphorylation)", "setting": "PERK", "value": "dose-dependent reduction of eIF2a phosphorylation"}]}, {"compound": "Cc1sc2c(c1C)C(c1ccc(Cl)cc1)=N[C@@H](CC(=O)OC(C)(C)C)c1nnc(C)n1-2", "note": "[JQ1, reference compound]", "values": [{"measurement": "transcriptional suppression of both MUC1-fs and MUC1-wt", "setting": "total MUC1 mRNA", "value": 100, "unit": "%"}]}, {"compound": "C/C=C(/C)C(=O)O[C@H]1C(C)=C2[C@H]([C@@H]1OC(=O)CCCCCCC)[C@@](C)(OC(C)=O)C[C@H](OC(=O)CCC)[C@@]1(O)[C@H]2OC(=O)[C@@]1(C)O", "note": "[THP, thapsigargin, reference compound]", "values": [{"measurement": "pEC50", "setting": "P cells [5]", "value": 7.77}, {"measurement": "susceptibility of P cells to THP-induced apoptosis", "setting": "P cells [6]", "value": "higher susceptibility to apoptosis compared to N cells"}]}, {"compound": "PF-429242", "values": [{"measurement": "ATF6 activation (BiP abundance)", "setting": "ATF6", "value": "dose-dependent reduction of BiP abundance"}, {"measurement": "MUC1-fs abundance (immunoblot)", "setting": "MUC1-fs [4]; 10 μM, 24 hours", "value": "MUC1-fs accumulation"}]}]}
